# Experimental data from US20060205949A1, “Crystalline forms of a biphenyl compound” (THERAVANCE, INC., priority 2005, published 2006).
# Columns and labels:
# hM3 receptor (CHO cells) = target: T1, hM3 receptor (CHO cells) (Homo sapiens, UniProt P20309); assay: Blockade of agonist-mediated calcium release via FLIPR; assay type: cell-based; conditions: CHO cells stably expressing the hM3 receptor, this or a similar assay
# T1 construct: expressed in transfected cells
# Source text: Muscarinic receptor subtypes (M1, M3 and M5 receptors), which couple to Gq proteins, activate the phospholipase C (PLC) pathway upon agonist binding to the receptor. As a result, activated PLC hydrolyzes phosphatyl inositol diphosphate (PIP2) to diacylglycerol (DAG) and […] (IP3), which in turn generates calcium release from intracellular stores, i.e., endoplasmic and sarcoplasmic reticulum. The FLIPR (Molecular Devices, Sunnyvale, Calif.) assay capitalizes on this increase in intracellular calcium by using a calcium sensitive dye (Fluo-4AM, Molecular Probes, Eugene, Oreg.) that fluoresces when free calcium binds. This fluorescence event was measured in real time by the FLIPR, which detected the change in fluorescence from a monolayer of cells cloned with human M1 and M3, and chimpanzee M5 receptors. Antagonist potency was determined by the ability of antagonists to inhibit agonist-mediated increases in intracellular calcium.
# For FLIPR calcium stimulation assays, CHO cells stably expressing the hM1, hM3 and cM5 receptors were seeded into 96-well FLIPR plates the night before the assay was done. […]
# To determine antagonist potency, the dose-dependent stimulation of intracellular Ca^2+ release for oxotremorine was first determined so that antagonist potency can later be measured against oxotremorine stimulation at an EC90 concentration. […]
# [1] = target: T2, hM2 receptor (CHO-K1 cells) (Homo sapiens, UniProt P08172); assay: Blockade of agonist-mediated inhibition of cAMP accumulation; assay type: cell-based; conditions: CHO-K1 cells expressing the hM2 receptor; this or a similar assay; read-out: Ki value for blockade of oxotremorine-inhibition of forskolin-mediated cAMP accumulation
# T2 construct: expressed in transfected cells; host or cells: CHO-K1 cells
# T2 sequence (P08172 1-466): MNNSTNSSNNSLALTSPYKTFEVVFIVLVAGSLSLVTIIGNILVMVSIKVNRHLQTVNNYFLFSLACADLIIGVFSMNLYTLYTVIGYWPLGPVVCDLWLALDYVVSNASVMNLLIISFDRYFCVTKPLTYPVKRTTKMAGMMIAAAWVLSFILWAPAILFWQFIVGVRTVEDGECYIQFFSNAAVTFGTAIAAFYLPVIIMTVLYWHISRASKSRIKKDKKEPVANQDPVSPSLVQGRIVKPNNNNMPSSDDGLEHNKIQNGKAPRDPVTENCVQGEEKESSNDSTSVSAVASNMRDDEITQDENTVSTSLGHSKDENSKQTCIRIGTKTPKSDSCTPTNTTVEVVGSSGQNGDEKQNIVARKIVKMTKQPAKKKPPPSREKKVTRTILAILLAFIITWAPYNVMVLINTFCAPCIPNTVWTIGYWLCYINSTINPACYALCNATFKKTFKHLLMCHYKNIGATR
# Method: In this assay, the functional potency of a test compound was determined by measuring the ability of the test compound to block oxotremorine-inhibition of forskolin-mediated cAMP accumulation in CHO-K1 cells expressing the hM2 receptor. cAMP assays were performed in a radioimmunoassay format using the Flashplate Adenylyl Cyclase Activation Assay System with ^125I-cAMP (NEN SMP004B, PerkinElmer Life Sciences Inc., Boston, Mass.), according to the manufacturer's instructions.
# Cells were rinsed once with dPBS and lifted with Trypsin-EDTA solution (0.05% trypsin/0.53 mM EDTA) as described in the Cell Culture and Membrane Preparation section above. The detached cells were washed twice by centrifugation at 650×g for five minutes in 50 mLs dPBS. The cell pellet was then re-suspended in 10 mL dPBS, and the cells were counted with a Coulter ZI Dual Particle Counter (Beckman Coulter, Fullerton, Calif.). […]
# To measure the ability of a test compound to block oxotremorine-inhibited AC activity, 25 μL forskolin and oxotremorine (25 μM and 5 μM final concentrations, respectively, diluted in dPBS) 25 μL diluted test compound, and 50 μL cells were added to remaining assay wells. […] Plates were sealed, incubated overnight at room temperature and counted the next morning on a PerkinElmer TopCount liquid scintillation counter (PerkinElmer Inc., Wellesley, Mass.). […]
# T1 sequence (P20309 whole entry): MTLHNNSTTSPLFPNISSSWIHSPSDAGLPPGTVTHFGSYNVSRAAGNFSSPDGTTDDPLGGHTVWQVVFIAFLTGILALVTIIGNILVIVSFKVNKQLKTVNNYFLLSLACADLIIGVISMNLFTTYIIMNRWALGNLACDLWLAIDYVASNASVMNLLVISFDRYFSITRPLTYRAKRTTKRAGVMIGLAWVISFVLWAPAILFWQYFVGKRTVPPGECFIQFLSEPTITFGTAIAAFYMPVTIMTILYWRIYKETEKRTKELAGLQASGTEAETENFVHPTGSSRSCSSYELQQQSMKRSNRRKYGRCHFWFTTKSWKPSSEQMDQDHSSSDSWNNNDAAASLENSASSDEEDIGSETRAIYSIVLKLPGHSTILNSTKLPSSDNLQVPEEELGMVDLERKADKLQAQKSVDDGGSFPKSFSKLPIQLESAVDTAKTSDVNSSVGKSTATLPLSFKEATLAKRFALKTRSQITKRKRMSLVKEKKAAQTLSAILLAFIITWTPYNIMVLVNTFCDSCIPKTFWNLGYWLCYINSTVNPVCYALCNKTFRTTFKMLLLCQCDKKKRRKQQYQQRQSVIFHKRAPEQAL
smiles,measurement,setting,value
"O=C(CCN1CCC(OC(=O)Nc2ccccc2-c2ccccc2)CC1)NCCCCCNCc1ccc(O)cc1 [compound of formula I, biphenyl-2-ylcarbamic acid 1-{2-[5-(4-hydroxybenzylamino)pentylcarbamoyl]ethyl}piperidin-4-yl ester]",Ki,hM3 receptor (CHO cells),< 10 nM
same,Ki,[1],< 10 nM
